For this assay, the target named is T1, HDAC6 (Homo sapiens, UniProt Q9UBN7).
T1 construct: endogenous in cells; host or cells: MM1S (ATCC CRL-2974)
T1 sequence (Q9UBN7 1-1215): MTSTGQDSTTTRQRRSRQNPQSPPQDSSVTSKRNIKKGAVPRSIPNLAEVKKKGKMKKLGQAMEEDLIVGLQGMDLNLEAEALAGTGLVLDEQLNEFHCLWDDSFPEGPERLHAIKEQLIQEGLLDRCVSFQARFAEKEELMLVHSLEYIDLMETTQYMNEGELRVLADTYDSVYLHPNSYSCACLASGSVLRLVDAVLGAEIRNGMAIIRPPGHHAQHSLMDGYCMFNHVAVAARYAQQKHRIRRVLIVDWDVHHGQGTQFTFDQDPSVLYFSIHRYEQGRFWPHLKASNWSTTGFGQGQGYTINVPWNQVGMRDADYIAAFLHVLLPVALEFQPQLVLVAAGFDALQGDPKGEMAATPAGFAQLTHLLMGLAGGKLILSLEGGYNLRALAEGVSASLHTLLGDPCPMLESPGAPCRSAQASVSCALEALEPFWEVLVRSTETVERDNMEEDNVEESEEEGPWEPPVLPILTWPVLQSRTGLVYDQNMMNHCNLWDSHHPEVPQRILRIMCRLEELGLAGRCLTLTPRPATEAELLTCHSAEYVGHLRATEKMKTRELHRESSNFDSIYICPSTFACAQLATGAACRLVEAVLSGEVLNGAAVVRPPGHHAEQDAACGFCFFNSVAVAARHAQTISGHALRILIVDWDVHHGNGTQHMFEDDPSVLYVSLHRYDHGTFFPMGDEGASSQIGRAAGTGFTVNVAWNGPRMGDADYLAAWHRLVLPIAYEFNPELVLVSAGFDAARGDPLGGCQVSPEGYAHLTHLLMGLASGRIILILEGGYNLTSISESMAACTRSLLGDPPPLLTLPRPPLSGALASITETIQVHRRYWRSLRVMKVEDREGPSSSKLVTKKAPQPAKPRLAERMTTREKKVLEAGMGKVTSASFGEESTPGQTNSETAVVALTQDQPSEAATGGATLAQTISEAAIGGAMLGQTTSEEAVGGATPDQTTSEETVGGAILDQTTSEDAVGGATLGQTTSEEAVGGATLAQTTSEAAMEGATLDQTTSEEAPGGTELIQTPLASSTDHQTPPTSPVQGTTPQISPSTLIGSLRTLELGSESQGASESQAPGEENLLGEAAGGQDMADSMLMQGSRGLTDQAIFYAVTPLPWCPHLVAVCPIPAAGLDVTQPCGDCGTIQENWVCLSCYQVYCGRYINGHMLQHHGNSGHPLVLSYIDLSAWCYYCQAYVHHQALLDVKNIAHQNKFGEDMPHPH
Nature of the assay: In-cell ELISA of HDAC6 protein level in MM1S cells. The format is cell-based. As to conditions: 6 h, 100% minus mean (± SD) relative HDAC6 expression; for inhibition at 0.01 µM / inhibition at 0.1 µM: MM1.S; for inhibition at 0.01 µM: n=3, read-out: Degradation (%) 10 nM; for inhibition at 0.1 µM: n=3, read-out: Degradation (%) 100 nM. As for the experimental part: FIG. 9 is a histogram depicting the results of screening of compounds for HDAC6 degradation activity by in-cell ELISA. MM1S cells were treated with compounds at 100 nM (blue bars) or 10 nM (red bars) for 6 h. Data was normalized to vehicle (DMSO)-treated group and the bar graph represents as mean of relative HDAC6 protein level (n=3) with ±SD as error bar. Statistical significance was analyzed by one-way ANOVA. Not significant (ns) P>0.05, *P≤0.05, **P≤0.01, ***P≤0.001, ****P≤0.0001.
FIG. 11 is a graph depicting dose response of selected degrader candidates. MM1S cells were treated for 6 h and analyzed by in-cell ELISA. Data was normalized to vehicle (DMSO)-treated group and dot plot represented as mean relative expression (n=3) with ±SD as error bar. Nonlinear fitting of inhibitor concentration vs. response (three parameters) was generated by GraphPad Prism with R2 from 0.97 to 0.99.
FIG. 15 is a histogram depicting relative HDAC6 expression as a function of linker length for compounds 3a through 3k as described in the Examples section, Part 2. Human MM1S cells were treated with 100 nM degraders for 6 hours and analyzed by in-cell ELISA assay.
FIG. 17 is a dose-response curve for degraders 3j (n=1), 3k (n=12) and 2, at concentrations from 1 nM to 300 nM for 4 h in MM1S. See the Examples, Part 2.
To screen the new series of degraders, an in-cell ELISA assay was developed and validated. The compounds were treated at 100 nM and 10 nM in MM1S cells for 6 h. Resulting cells were then fixed and analyzed by in-cell ELISA. […] Degraders including 1 at 100 nM degraded 73.5% to 85.0% of HDAC6 with minor difference. At 10 nM concentration of compounds, obvious structure-activity-relationship (SAR) was observed. […] For example, 12d, 12h, 12i, 12o and 12p all achieved about 70% degradation. Among the C4-linked series, 12d with medium length linker (5+1) achieved most degradation in sub-series 12a-e (m=1). […] Among C5-linked series, the potency of sub-series 12l-p (m=1) increased with the linker length. […] It appeared that both the distance and linking positions contributed to the degradation efficiency. The rigid triazole ring in the middle of the linker likely modulated the plasticity of degrader-bridged ternary complex.
The amount of cellular HDAC6 was measured in response to concentrations of compounds from 0.1 nM to 1 μM. […] The new degraders had single-digit nanomolar DC50, which was about 3 to 5 fold of improvement from 9.12 nM of degrader 1. […] As discussed above, most PROTACs were designed to avoid degrading other proteins except the targeted POIs. However, in these studies, it was hypothesized that HDAC6 degraders with IKZF degradation will have enhanced anti-proliferation effect MM1S cells.
MM1S cells were harvested and plated with 5×10^5 cells in 100 μL media per well 96-wells plate. After overnight seeding, 25 μL media containing 5× dosing concentration of the compounds or vehicle was added to each well. After 6-hour treatment at 37° C. in a humidified 5% CO2 atmosphere, cells were fixed by adding 125 μL 8% formaldehyde in TBS buffer (137 mM NaCl, 25 mM Tris, 2.7 mM potassium chloride, pH 7.6) and incubated at room temperature (RT) for 15 minutes. Removal of fixing solution was followed by once rinse and twice washes with TBS-T washing buffer (137 mM NaCl, 20 mM Tris, 0.1% Tween, pH 7.6). Cells were then permeabilized by adding 100 μL 0.1% Triton-X in TBS and incubated at RT for 15 minutes. Removal of permeabilizing solution was followed by once rinse and once wash with TBS-T. Cellular endogenous peroxidases were quenched by adding 100 μL 1% H2O2 in TBS and incubation at RT for 20 minutes. Removal of quenching solution was followed by once rinse and once wash with TBS-T. Non-specific binding sites were blocked by adding […] 5% BSA in TBS-T (with 0.02% NaN3) and incubation at 4° C. overnight. […]
(In general: An ELISA detects its analyte on a solid surface through an enzyme-linked reagent.)

This note sets out measurements from patent publication US11059815B2, “Synthesis of small molecule histone deacetylase 6 degraders, compounds formed thereby, and pharmaceutical compositions containing them” (Wisconsin Alumni Research Foundation, priority 2018, dated 2021).

Molecules are shown by their SMILES.

Consider `CCCCN(Cc1ccc(C(=O)NO)cc1)C(=O)Nc1ccc(OCCCn2cc(CNc3cccc4c3C(=O)N(C3CCC(=O)NC3=O)C4=O)nn2)cc1` (stereo not drawn) [Compound 12b, 4-((1-butyl-3-(4-(3-(4-(((2-(2,6-dioxopiperidin-3-yl)-1,3-dioxoisoindolin-4-yl)amino)methyl)-1H-1,2,3-triazol-1-yl)propoxy)phenyl)ureido)methyl)-N-hydroxybenzamide], for which, under “10 nM”, the inhibition at 0.01 µM was determined as 67.3 ± 0.8%. Under “100 nM”, the inhibition at 0.1 µM was found to be 84.1%.
As for `CCCCN(Cc1ccc(C(=O)NO)cc1)C(=O)Nc1ccc(OCCCCn2cc(CNc3cccc4c3C(=O)N(C3CCC(=O)NC3=O)C4=O)nn2)cc1` (stereo not drawn) [Compound 12n, 4-((1-butyl-3-(4-(4-(4-(((2-(2,6-dioxopiperidin-3-yl)-1,3-dioxoisoindolin-4-yl)amino)methyl)-1H-1,2,3-triazol-1-yl)butoxy)phenyl)ureido)methyl)-N-hydroxybenzamide], the “Degradation (%) 10 nM” value (10 nM, n=3) is recorded as 63.3 ± 0.8%. The “Degradation (%) 100 nM” value (100 nM, n=3) is 80.9 ± 0.4%.
On to `CCCCN(Cc1ccc(C(=O)NO)cc1)C(=O)Nc1ccc(OCCCn2cc(CCCNc3cccc4c3C(=O)N(C3CCC(=O)NC3=O)C4=O)nn2)cc1` (stereo not drawn) [Compound 12j, 4-((1-butyl-3-(4-(3-(4-(3-((2-(2,6-dioxopiperidin-3-yl)-1,3-dioxoisoindolin-4-yl)amino)propyl)-1H-1,2,3-triazol-1-yl)propoxy)phenyl)ureido)methyl)-N-hydroxybenzamide], for which, for the setting “10 nM”, the inhibition at 0.01 µM turned out to be 45.6 ± 1.6%. Further, where the note is “100 nM”, the inhibition at 0.1 µM was 77.3 ± 1.5%.
For the compound `CCCCN(Cc1ccc(C(=O)NO)cc1)C(=O)Nc1ccc(OCCn2cc(CCCNc3ccc4c(c3)C(=O)N(C3CCC(=O)NC3=O)C4=O)nn2)cc1` (stereo not drawn) [Compound 12q, 4-((1-butyl-3-(4-(2-(4-(3-((2-(2,6-dioxopiperidin-3-yl)-1,3-dioxoisoindolin-5-yl)amino)propyl)-1H-1,2,3-triazol-1-yl)ethoxy)phenyl)ureido)methyl)-N-hydroxybenzamide], the inhibition at 0.01 µM (10 nM) amounted to 47.2 ± 4.8%. Moreover, the inhibition at 0.1 µM (100 nM) came out at 80.4 ± 0.3%.
The like results for `CCCCN(Cc1ccc(C(=O)NO)cc1)C(=O)Nc1ccc(OCCCCCCn2cc(CNc3ccc4c(c3)C(=O)N(C3CCC(=O)NC3=O)C4=O)nn2)cc1` (stereo not drawn) [Compound 12p, 4-((1-butyl-3-(4-((6-(4-(((2-(2,6-dioxopiperidin-3-yl)-1,3-dioxoisoindolin-5-yl)amino)methyl)-1H-1,2,3-triazol-1-yl)hexyl)oxy)phenyl)ureido)methyl)-N-hydroxybenzamide] were, in that order, about 70% and 83.5 ± 0.5%.
On the same counts, the results for `CCCCN(Cc1ccc(C(=O)NO)cc1)C(=O)Nc1ccc(OCCCn2cc(CCCNc3ccc4c(c3)C(=O)N(C3CCC(=O)NC3=O)C4=O)nn2)cc1` (stereo not drawn) [Compound 12r, 4-((1-butyl-3-(4-(3-(4-(3-((2-(2,6-dioxopiperidin-3-yl)-1,3-dioxoisoindolin-5-yl)amino)propyl)-1H-1,2,3-triazol-1-yl)propoxy)phenyl)ureido)methyl)-N-hydroxybenzamide] are 60.9 ± 0.4% and 81.9 ± 0.4%.
